Measurements from PubChem BioAssay (NCI).
Values joined by “and” are separate entries in the source; they are usually repeats but may differ in a detail not shown here. Identical values can stand only once.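 How tested: cells in 96-well plates exposed to compound for 48 hours at five concentrations. Here, GI50 denotes the concentration required for 50% inhibition of growth. TGI marks complete inhibition of growth.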

Assays:
Assay in all cases: DTP human tumour cell line panel, 48 h
[1] = test system: NCI-H460 lung
[2] = test system: CAKI-1 renal
[3] = test system: SF-539 CNS
[4] = test system: MOLT-4 leukemia
[5] = test system: SF-295 CNS
[6] = test system: SNB-19 CNS
[7] = test system: RPMI-8226 leukemia
[8] = test system: SK-OV-3 ovarian
[9] = test system: M19-MEL melanoma

Row | SMILES | GI50 [1] | TGI [1] | GI50 [2] | TGI [2] | GI50 [3] | TGI [3] | GI50 [4] | TGI [4] | GI50 [5] | TGI [5] | GI50 [6] | TGI [6] | GI50 [7] | TGI [7] | GI50 [8] | TGI [8] | TGI [9]
1 | Cc1cc(C(=O)Nc2cc(Nc3ncccc3-c3ncnc4nc[nH]c34)ccc2F)cc(C(C)(C)C#N)c1 | 1.98 µM | > 100 µM | 0.951 µM | > 100 µM | 1.19 µM | > 63.8 µM | 3.45 µM | > 100 µM | 4.45 µM | > 100 µM | 4.31 µM | > 100 µM | 2.01 µM | 53.5 µM | 26 µM | > 100 µM | –
2 | CCCCCCCCCCCCCCCCCCNC(=O)[C@H]1CSC(c2ccc(F)c(OC)c2)N1 (stereo partly drawn) | 0.211 µM | 0.824 µM | 0.846 µM | 1.58 µM | 1.77 µM | 6.26 µM | 0.717 µM | 5.17 µM | 2.14 µM | 13.7 µM | 0.996 µM | 1.96 µM | 0.195 µM | 0.826 µM | 1.92 µM | 11.2 µM | –
3 | COc1ccc(-c2nn(-c3cccc(Cl)c3)cc2/C=C2\C(=N)N(c3ccccc3)N=C2N)cc1 | 0.445 µM | 7.4 µM | 0.229 µM | 0.844 µM | 0.617 µM | 3.52 µM | 0.511 µM | 22.3 µM | 0.271 µM | 2.83 µM | 8.58 µM | > 100 µM | 0.993 µM | 46.2 µM | 34.7 µM | > 100 µM | –
4 | O=C1Nc2ccc(Br)cc2C1=Nc1ccc(Cl)cc1 | – | > 100 µM | – | > 100 µM | – | 19.4 µM | – | > 100 µM | – | 89.2 µM | – | 97 µM | – | 26.5 µM | – | > 100 µM | –
5 | COc1ccc(-c2conc2-c2ccccc2)cc1 | 0.324 µM | 4.37 µM | 0.246 µM | > 100 µM | 0.272 µM | 3.87 µM | 0.706 µM | > 100 µM | 0.317 µM | > 100 µM | 0.647 µM | > 100 µM | 0.453 µM | 41.9 µM | 0.501 µM | > 100 µM | –
6 | COc1ccc(C2NC(=S)NC3=C2COc2ccc(F)cc23)cc1OC (stereo not drawn) | 24.1 µM | > 100 µM | 15.8 µM | 65 µM | 28.3 µM | 67.4 µM | 54.6 µM | > 100 µM | 20.1 µM | 70.3 µM | 46.7 µM | > 100 µM | 13.5 µM | > 100 µM | 71.2 µM | > 100 µM | –
7 | O=C(Nc1cccc(Cl)c1)c1cc(Cl)ccc1O | 0.488 µM | 6.4 µM | 0.837 µM | 5.79 µM | 0.674 µM | 12.4 µM | 1.84 µM | 5.04 µM | 1.21 µM | 3.75 µM | 0.481 µM | 36.6 µM | 0.375 µM | 2.18 µM | 0.582 µM | 2.81 µM | –
8 | COc1ccccc1-c1nccc(COc2ccccc2C[C@@H](Oc2ncnc3sc(-c4ccc(F)cc4)c(-c4ccc(OCCN5CCN(C)CC5)c(Cl)c4C)c23)C(=O)O)n1 | 2.09 µM | 5.84 µM | 2.66 µM | 9.89 µM | 1.21 µM | 2.59 µM | 0.0436 µM | 1.54 µM | 1.89 µM | 3.91 µM | 2.05 µM | 4.58 µM | < 0.0104 µM | 0.285 µM | 4.04 µM | 16.5 µM | –
9 | CCOC(=O)/N=c1\ssc(Cl)c1Cl | 21.3 µM | 54.3 µM | 14.9 µM | 29.4 µM | 2.87 µM | 8.97 µM | 3.06 µM | > 100 µM | 16.7 µM | 33.2 µM | 23.7 µM | 56.9 µM | 3.52 µM | > 100 µM | 20.6 µM | 45.6 µM | –
10 | CCOc1cccc(/C=N/NC(=O)Cc2ccc(Nc3ccnc(C(F)(F)F)c3)cc2)c1O | 1.71 µM | 13.5 µM | 2.54 µM | 52.2 µM | 2.03 µM | 14.5 µM | 0.499 µM | 4.42 µM | 3.81 µM | 43.2 µM | 2.54 µM | > 100 µM | 0.519 µM | 17.4 µM | 3.3 µM | > 100 µM | –
11 | NC(=O)c1c(NC(=O)c2cccc(C(F)(F)F)c2)sc2c1CCC(=O)C2 | 0.512 µM | > 100 µM | 0.351 µM | 7.29 µM | 0.328 µM | 1.23 µM | 0.404 µM | > 20.2 µM | 1.23 µM | 9.07 µM | 0.432 µM | > 100 µM | 0.127 µM | 0.745 µM | 2.8 µM | 8.39 µM | –
12 | COc1ccc(-c2cn(-c3cc(OC)c(OC)c(OC)c3)c(=O)n2-c2ccccc2)cc1 | > 100 µM | > 100 µM | > 100 µM | > 100 µM | > 100 µM | > 100 µM | > 100 µM | > 100 µM | > 100 µM | > 100 µM | > 100 µM | > 100 µM | > 100 µM | > 100 µM | > 100 µM | > 100 µM | –
13 | CC(C)c1ccc2c(c1)c(SC(C)(C)C)c(CC(C)(C)C(=O)O)n2Cc1ccc(Cl)cc1 | 4.23 µM | 16.2 µM | 10.8 µM | 25.8 µM | 9.05 µM | 21.8 µM | 1.64 µM | 26.3 µM | 6.69 µM | 22.2 µM | 8.45 µM | 22.7 µM | 5.17 µM | 41.8 µM | 14.1 µM | 29.8 µM | –
14 | CC(=O)Nc1ccc2c(c1)CN1C(=O)c3ccccc3C1=N2 | > 100 µM | > 100 µM | > 100 µM | > 100 µM | > 100 µM | > 100 µM | > 100 µM | > 100 µM | > 100 µM | > 100 µM | > 100 µM | > 100 µM | > 100 µM | > 100 µM | > 100 µM | > 100 µM | –
15 | N#Cc1c(-c2ccc(Cl)cc2)csc1NC(=O)Nc1cccc(C(F)(F)F)c1 | 2.76 µM | 10.2 µM | 2.7 µM | 10.5 µM | 2.06 µM | 4.85 µM | 1.91 µM | 7.77 µM | 1.74 µM | 4.21 µM | 3.39 µM | 13.4 µM | 1.84 µM | 7 µM | 2.54 µM | 6.89 µM | –
16 | COc1ccc2c(c1)c(-c1cc(-c3cn(C)c4ccc(OC)cc34)[nH]n1)cn2C | > 100 µM | > 100 µM | > 100 µM | > 100 µM | > 100 µM | > 100 µM | > 100 µM | > 100 µM | > 100 µM | > 100 µM | > 100 µM | > 100 µM | > 100 µM | > 100 µM | > 100 µM | > 100 µM | –
17 | COc1ccc(C(=O)/C=C/c2ccc(OCCCCCCCCCCOc3ccc(/C=C/C(=O)c4ccc(OC)c(OC)c4)cc3)cc2)c(OC)c1 | – | > 100 µM | – | > 100 µM | – | > 100 µM | – | > 100 µM | – | > 100 µM | – | > 100 µM | – | > 100 µM | – | > 100 µM | –
18 | CCCCCCCCCCCCNC(=O)[C@H]1CSC(c2ccsc2)N1 (stereo partly drawn) | 0.986 µM | 1.84 µM | 0.898 µM | 1.6 µM | 0.902 µM | 1.7 µM | 0.895 µM | 1.84 µM | 0.926 µM | 1.68 µM | 0.952 µM | 1.83 µM | 1.72 µM | 5.69 µM | 0.955 µM | 1.66 µM | –
19 | Cc1ccc(-c2cc(C(Cl)Cl)on2)cc1 | 49.1 µM | > 100 µM | 43.8 µM | > 100 µM | > 100 µM | > 100 µM | 26.8 µM | > 100 µM | 60 µM | > 100 µM | > 100 µM | > 100 µM | 33.8 µM | > 100 µM | > 100 µM | > 100 µM | –
20 | O=C(O)C(CS)N=Cc1nc(-c2ccccc2)oc1O (stereo not drawn) | – | > 100 µM | – | – | – | > 100 µM | – | > 100 µM | – | > 100 µM | – | > 100 µM | – | > 100 µM | – | > 100 µM | > 100 µM
21 | COc1ccc2nc3cc(Cl)ccc3c(Nc3ccc(O)c(CN4CCCC4)c3)c2c1 | 2.46 µM | 6.15 µM | 2.09 µM | 4.88 µM | 1.87 µM | 3.49 µM | 2.43 µM | 11.4 µM | 1.6 µM | 3.53 µM | 2.99 µM | 13.9 µM | 2.55 µM | 6.41 µM | 6.21 µM | 19 µM | –
22 | CC(=O)c1c(Nc2ccc(F)c(F)c2F)[nH]c2c(F)cc(F)cc2c1=O | 0.331 µM | 11.2 µM | 0.218 µM | 1.61 µM | 0.322 µM | 4.33 µM | 0.425 µM | – | 0.308 µM | 1.5 µM | 0.354 µM | > 70.2 µM | 0.206 µM | 0.72 µM | 0.297 µM | 3.24 µM | –
23 | Oc1cccc(-c2nc(N3CCOCC3)c3oc4ncccc4c3n2)c1 | 0.359 µM and 0.419 µM | > 100 µM | 0.318 µM and 0.342 µM | 2.24 µM and 7.38 µM | 0.137 µM and 0.131 µM | 0.594 µM and 0.635 µM | 0.102 µM and 0.168 µM | > 100 µM | 1.21 µM and 1.62 µM | 4.08 µM and 4.6 µM | 0.358 µM and 0.247 µM | 7.43 µM and 6.83 µM | 0.237 µM and 0.298 µM | > 38.3 µM | 0.0912 µM and 0.0819 µM | 0.606 µM and 0.393 µM | –
